From patent US20230276803A1, “A PESTICIDALLY ACTIVE MIXTURE COMPRISING THIETANYLOXY COMPOUND, OXIDES OR SALTS THEREOF” (PI INDUSTRIES LTD., priority 2020, published 2023) come the findings set out here.

Holding throughout (type): in vivo
Assay [1] deals with Spodoptera litura. Briefly: Diet incorporation method against Spodoptera litura (Example B). Particulars: 96 h. The source says:
(§1) In which E represents the expected percentage of inhibition of the pests for the combination of two insecticides or one insecticide and one fungicide at defined doses (for example equal to x and y respectively), x is the percentage of inhibition observed for the pest/disease by the compound (1) at a given dose (equal to x), y is the percentage of inhibition observed for the pest/disease by the compound (2) or (3) at a defined dose (equal to y). When the percentage of inhibition observed for the combination is greater than E, there is a synergistic effect.
The diet incorporation method was used, in which semi-synthetic diet was incorporated into the test solution consisting either of the single compound or respective compound combinations, when the temperature was approximately 50° C. in the bioassay containers, then stirred thoroughly for proper mixing and allowed to cool for 30 min. The solidified diet was cut into equal pieces, and then each piece was transferred into one cell of the bio-assay trays. A single starved third instar larva was released into each of these cells of the bio-assay trays and the tray was covered with a lid. The bio-assay trays were kept under laboratory conditions at a temperature of 25° C. and relative humidity of 70%. Observations on dead, moribund and live larvae were recorded 96 h after the release. Percent mortality was calculated by combining dead and moribund larvae and comparing the result with the one of the untreated control. The results are shown for the compound of formula (I-1) in Table B.

The subject of assay [2] is Plutella xylostella. The assay can be described thus: Leaf dip method (cabbage) against Plutella xylostella (Example C). Particulars: Plutella xylostella, foliar, 72 h, read-out: Observed Efficacy (%).
Text: as §1
The leaf dip method was used, wherein the required quantity of the compound or respective compound combinations were weighed and dissolved in a test solution prepared in tubes. The tubes were put on a vortex at 2000 rpm for 90 min for proper mixing and then diluted with a 0.01% Triton-X solution to the desired test concentration. Cabbage leaves were dipped into the solution for 10 seconds, shade dried for 20 min and then transferred to single cells of bioassay trays. A single second instar larva was released into each cell and the tray was covered with a lid. The bio-assay trays were kept under laboratory conditions at a temperature of 25° C. and relative humidity of 70%. Observations on dead, moribund and live larvae were recorded 72 h after the release. Percent mortality was calculated by combining dead and moribund larvae and comparing the result with the one of the untreated control. The results are shown for compound of formula (I-1) in Table C.

In assay [3] the test system is Helicoverpa armigera. The assay can be described thus: Leaf dip method (tomato leaves), Bacillus thuringiensis mixture against Helicoverpa armigera (Example D). Particulars: 0.1 ppm; 72 h.
Text: as §1
The leaf dip method was used, wherein the required quantity of the compounds were weighed and dissolved in a test solution prepared in tubes. The tubes were put on a vortex at 2000 rpm for 90 min for proper mixing and then, for the single compounds, diluted with a 0.01% Triton-X solution, for the combinations, diluted with a 0.01% Triton-X solution containing formulated Bt, to get the desired test concentrations. Tomato leaves were dipped in the solution for 10 seconds, shade dried for 20 min and then transferred to single cells of the bioassay trays. […] Observations on dead, moribund and live larvae were recorded at 72 h after the release. Percent mortality was calculated by combining dead and moribund larvae and comparing the result to the one of the untreated control. […]

In assay [4] the test system is Phakopsora pachyrhizi. Briefly: Preventive glasshouse test against Phakopsora pachyrhizi in soybean (Example H). Particulars: preventive spray.
Text: as §1
The single compounds or the respective compound combinations were dissolved in 2% dimethyl sulfoxide/acetone and then mixed with water containing an emulsifier to a calibrated spray volume of 50 ml. The test solutions were poured into spray bottles for further applications.
To test the preventive activity of compounds, healthy young Soybean plants, raised in the greenhouse, were sprayed with the active compound preparation at the stated application rates inside the spray cabinets using hollow cone nozzles. One day after treatment, the plants were inoculated with a suspension containing 2×10^5 Phakopsora pachyrhizi conidia. The inoculated plants were then kept in a greenhouse chamber at a temperature of 22-24° C. and 80-90% relative humidity for disease expression.
A visual assessment of the performance of the single compounds and respective compound combinations was carried out by rating the disease severity (0-100% scale) on treated plants 3, 7, 10 and 15 days after application. Efficacy (% control) of the compounds was calculated by comparing the disease rating in the treatment with the one of the untreated control. The compounds were also assessed for their plant compatibility by recording symptoms like necrosis, chlorosis and stunting. The results have been described for the compound of formula (I-1) in Table H.

Molecules are shown by their SMILES.

With `Cc1cc(Cl)cc(C(=O)NC(C)(C)C)c1NC(=O)c1cc(OC2CS(=O)(=O)C2)nn1-c1ncccc1Cl` [Compound (I-1), N-(2-(tert-butylcarbamoyl)-4-chloro-6-methylphenyl)-1-(3-chloropyridin-2-yl)-3-((1,1-dioxidothietan-3-yl)oxy)-1H-pyrazole-5-carboxamide], in assay [1] (read-out: Observed Efficacy (%), 0.32 ppm), the pest or weed control at 0.32 ppm was 37.5%. The pest or weed control at 1 ppm in assay [1] (read-out: Observed Efficacy (%), 1 ppm) was 25%. Further, the pest or weed control at 0.0025 ppm in assay [2] (0.0025 ppm) was 0%. Moreover, the pest or weed control at 0.004 ppm in assay [2] (0.004 ppm) turned out to be 0%. Besides, the pest or weed control at 0.005 ppm in assay [2] (0.005 ppm) came to 0%. In assay [2] (0.02 ppm), the pest or weed control at 0.02 ppm amounted to 12.5%. Moreover, the pest or weed control at 0.03 ppm in assay [2] (0.03 ppm) was found to be 12.5%. Besides, the pest or weed control at 0.05 ppm in assay [2] (0.05 ppm) stood at 12.5%. Moreover, the pest or weed control at 0.1 ppm in assay [2] (0.1 ppm) was determined as 12.5%. In assay [2] (0.5 ppm), the pest or weed control at 0.5 ppm was determined as 25%. The “Observed Efficacy (%)” value in assay [3] came out at 12.5%; in assay [4] (100 ppm) it was 44%; in assay [4] (500 ppm), 47%.
